Reference: patent US10167262B2, “Herbicidal substituted 3-arylpyrazoles” (FMC CORPORATION, priority 2014, dated 2019)

Experiments:
Format in all cases: in vivo
[1] = tested on: woolly cupgrass (Eriochloa villosa); assay: Test C postemergence greenhouse test, plant response rating 0-100; conditions: for Plant response rating, Cupgrass, Woolly: 250 g ai/ha, scale 0 to 100
How it was run: (§1)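 Visual rating vs. controls, 0 (no effect) to 100 (complete control), 13–15 d after postemergence treatment. Potted plants, 1- to 4-leaf stage (2–18 cm), greenhouse-held.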

[2] = tested on: goosegrass (Eleusine indica); assay: as above; conditions: for Plant response rating, Goosegrass: 250 g ai/ha, scale 0 to 100
How it was run: as §1

[3] = tested on: cocklebur (common cocklebur, Xanthium strumarium); assay: as above; conditions: for Plant response rating, Cocklebur: 250 g ai/ha, scale 0 to 100
How it was run: as §1

[4] = tested on: canarygrass (Phalaris minor); assay: as above; conditions: for Plant response rating, Canarygrass: 250 g ai/ha, scale 0 to 100
How it was run: as §1

[5] = tested on: deadnettle (henbit deadnettle, Lamium amplexicaule); assay: as above; conditions: for Plant response rating, Deadnettle: 250 g ai/ha, scale 0 to 100
How it was run: as §1

[6] = tested on: barnyardgrass (Echinochloa crus-galli); assay: Test C pre-/postemergence greenhouse test, plant response rating 0-100
How it was run: (§2)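 Plants were treated either at seeding (soil of loam and sand) or as 2–18 cm seedlings in a sphagnum peat mix, using test chemicals in a surfactant-containing non-phytotoxic solvent. Visual assessment relative to controls followed 13–15 days later.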

[7] = tested on: oilseed rape (Brassica napus); assay: as above
How it was run: as §2

[8] = tested on: waterhemp (common waterhemp, Amaranthus rudis); assay: as above
How it was run: as §2

[9] = tested on: sandbur (southern sandbur, Cenchrus echinatus); assay: Test E pre-/postemergence greenhouse test, plant response rating 0-100; conditions: scale 0 to 100; for Plant response rating, Sandbur: Postemergence; for Sandbur plant response rating: Preemergence
How it was run: (§3)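 Greenhouse pot assay, two application timings. Pre- to silt loam at planting; post- to 1–4-leaf plants. Visual 0–100 score at 14–21 d.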

[10] = tested on: barnyardgrass (Echinochloa crus-galli); assay: as above; conditions: scale 0 to 100; for Plant response rating, Barnyardgrass: Postemergence; for Barnyardgrass plant response rating: Preemergence
How it was run: as §3

soybean (Glycine max) = assay: as above; conditions: scale 0 to 100; for Plant response rating, Soybean: Postemergence; for Soybean plant response rating: Preemergence
How it was run: as §3

[11] = Postemergence, 250 g ai/ha, scale 0 to 100
[12] = Postemergence, 500 g ai/ha, scale 0 to 100

`Cn1cc(C(=NN2CCCC2)c2ccccc2)c(-c2cc(Cl)c(Cl)c(Cl)c2)n1` [Compound 25] was tested, and the “Plant response rating (0 to 100), Cupgrass, Woolly” value ([1]; 31 g ai/ha) was 0, the “Plant response rating (0 to 100), Cupgrass, Woolly” value ([1]; 62 g ai/ha) was 0 and the “Plant response rating (0 to 100), Cupgrass, Woolly” value ([1]; 125 g ai/ha) was 0. The “Plant response rating, Cupgrass, Woolly” value [1] was 0, the “Plant response rating (0 to 100), Goosegrass” value ([2]; 31 g ai/ha) was 0 and the “Plant response rating (0 to 100), Goosegrass” value ([2]; 62 g ai/ha) was 0. For the same molecule, the “Plant response rating (0 to 100), Goosegrass” value ([2]; 125 g ai/ha) was 0, the “Plant response rating, Goosegrass” value [2] was 0 and the “Plant response rating (0 to 100), Cocklebur” value ([3]; 31 g ai/ha) was 5. For the same molecule, the “Plant response rating (0 to 100), Cocklebur” value ([3]; 62 g ai/ha) was 15, the “Plant response rating (0 to 100), Cocklebur” value ([3]; 125 g ai/ha) was 15 and the “Plant response rating, Cocklebur” value [3] was 25. For the same molecule, the “Plant response rating (0 to 100), Canarygrass” value ([4]; 31 g ai/ha) was 0, the “Plant response rating (0 to 100), Canarygrass” value ([4]; 62 g ai/ha) was 0 and the “Plant response rating (0 to 100), Canarygrass” value ([4]; 125 g ai/ha) was 0. For the same molecule, the “Plant response rating, Canarygrass” value [4] was 5, the “Plant response rating (0 to 100), Deadnettle” value ([5]; 31 g ai/ha) was 0 and the “Plant response rating (0 to 100), Deadnettle” value ([5]; 62 g ai/ha) was 0. The “Plant response rating (0 to 100), Deadnettle” value ([5]; 125 g ai/ha) was 0 and the “Plant response rating, Deadnettle” value [5] was 0.
With `O=Cn1cc(C(=O)c2ccccc2)c(-c2cc(Cl)cc(Cl)c2)n1` [Compound 28] the “Plant response rating (0 to 100), Barnyardgrass” value ([6]; Postemergence, 62 g ai/ha) was 0, the “Plant response rating, Barnyardgrass” value ([6]; Postemergence, 125 g ai/ha, scale 0 to 100) was 0 and the “Plant response rating, Barnyardgrass” value [6, 11] was 0. For the same molecule, the “Plant response rating, Barnyardgrass” value [6, 12] was 0, the “Plant response rating, Barnyardgrass” value ([6]; Preemergence, 62 g ai/ha) was 0 and the “Plant response rating, Barnyardgrass” value ([6]; Preemergence, 125 g ai/ha) was 0. For the same molecule, the “Plant response rating, Barnyardgrass” value ([6]; Preemergence, 250 g ai/ha) was 0, the “Plant response rating, Barnyardgrass” value ([6]; Preemergence, 500 g ai/ha) was 0 and the “Plant response rating (0 to 100), Oilseed Rape” value ([7]; Postemergence, 62 g ai/ha) was 80. The “Plant response rating (0 to 100), Oilseed Rape” value ([7]; Postemergence, 125 g ai/ha) was 85, the “Plant response rating, Oilseed Rape” value [7, 11] was 85 and the “Plant response rating, Oilseed Rape” value [7, 12] was 95. For the same molecule, the “Plant response rating, Oilseed Rape” value ([7]; Preemergence, 62 g ai/ha) was 5, the “Plant response rating, Oilseed Rape” value ([7]; Preemergence, 125 g ai/ha) was 30 and the “Plant response rating, Oilseed Rape” value ([7]; Preemergence, 250 g ai/ha) was 98. The “Plant response rating, Oilseed Rape” value ([7]; Preemergence, 500 g ai/ha) was 100, the “Plant response rating (0 to 100), Waterhemp” value ([8]; Postemergence, 62 g ai/ha) was 95 and the “Plant response rating (0 to 100), Waterhemp” value ([8]; Postemergence, 125 g ai/ha) was 98. The “Plant response rating, Waterhemp” value [8, 11] was 98, the “Plant response rating, Waterhemp” value [8, 12] was 100 and the “Plant response rating, Waterhemp” value ([8]; Preemergence, 62 g ai/ha) was 100. The “Plant response rating, Waterhemp” value ([8]; Preemergence, 125 g ai/ha) was 100, the “Plant response rating, Waterhemp” value ([8]; Preemergence, 250 g ai/ha) was 100 and the “Plant response rating, Waterhemp” value ([8]; Preemergence, 500 g ai/ha) was 100. The “Plant response rating, Sandbur” value ([9]; 31 g ai/ha) was 0, the “Plant response rating, Sandbur” value ([9]; 62 g ai/ha) was 0 and the “Plant response rating, Sandbur” value ([9]; 125 g ai/ha) was 0. The “Plant response rating, Sandbur” value ([9]; 250 g ai/ha) was 0, the “Plant response rating, Sandbur” value ([9]; 500 g ai/ha) was 0 and the “Sandbur plant response rating” value ([9]; 31 g ai/ha) was 0. For the same molecule, the “Sandbur plant response rating” value ([9]; 62 g ai/ha) was 0, the “Sandbur plant response rating” value ([9]; 125 g ai/ha) was 0 and the “Sandbur plant response rating” value ([9]; 250 g ai/ha) was 0. The “Sandbur plant response rating” value ([9]; 500 g ai/ha) was 0, the “Plant response rating, Barnyardgrass” value ([10]; 31 g ai/ha) was 0 and the “Plant response rating, Barnyardgrass” value ([10]; 62 g ai/ha) was 0. The “Plant response rating, Barnyardgrass” value ([10]; 125 g ai/ha) was 0, the “Plant response rating, Barnyardgrass” value ([10]; 250 g ai/ha) was 0 and the “Plant response rating, Barnyardgrass” value ([10]; 500 g ai/ha) was 0. For the same molecule, the “Barnyardgrass plant response rating” value ([10]; 31 g ai/ha) was 0, the “Barnyardgrass plant response rating” value ([10]; 62 g ai/ha) was 0 and the “Barnyardgrass plant response rating” value ([10]; 125 g ai/ha) was 0. For the same molecule, the “Barnyardgrass plant response rating” value ([10]; 250 g ai/ha) was 0, the “Barnyardgrass plant response rating” value ([10]; 500 g ai/ha) was 0 and the “Plant response rating, Soybean” value (soybean (Glycine max); 31 g ai/ha) was 0. For the same molecule, the “Plant response rating, Soybean” value (soybean (Glycine max); 62 g ai/ha) was 0, the “Plant response rating, Soybean” value (soybean (Glycine max); 125 g ai/ha) was 0 and the “Plant response rating, Soybean” value (soybean (Glycine max); 250 g ai/ha) was 0. The “Plant response rating, Soybean” value (soybean (Glycine max); 500 g ai/ha) was 0, the “Soybean plant response rating” value (soybean (Glycine max); 31 g ai/ha) was 0 and the “Soybean plant response rating” value (soybean (Glycine max); 62 g ai/ha) was 0. For the same molecule, the “Soybean plant response rating” value (soybean (Glycine max); 125 g ai/ha) was 0, the “Soybean plant response rating” value (soybean (Glycine max); 250 g ai/ha) was 0 and the “Soybean plant response rating” value (soybean (Glycine max); 500 g ai/ha) was 0.
For `CCn1cc(C(=NN2CCCC2)c2ccccc2)c(-c2cc(Cl)cc(Cl)c2)n1` [Compound 37], the “Plant response rating (0 to 100), Cupgrass, Woolly” value ([1]; 31 g ai/ha) was 5, the “Plant response rating (0 to 100), Cupgrass, Woolly” value ([1]; 62 g ai/ha) was 5 and the “Plant response rating (0 to 100), Cupgrass, Woolly” value ([1]; 125 g ai/ha) was 5. For the same molecule, the “Plant response rating, Cupgrass, Woolly” value [1] was 5, the “Plant response rating (0 to 100), Goosegrass” value ([2]; 31 g ai/ha) was 0 and the “Plant response rating (0 to 100), Goosegrass” value ([2]; 62 g ai/ha) was 0. For the same molecule, the “Plant response rating (0 to 100), Goosegrass” value ([2]; 125 g ai/ha) was 0, the “Plant response rating, Goosegrass” value [2] was 0 and the “Plant response rating (0 to 100), Cocklebur” value ([3]; 31 g ai/ha) was 5. For the same molecule, the “Plant response rating (0 to 100), Cocklebur” value ([3]; 62 g ai/ha) was 10, the “Plant response rating (0 to 100), Cocklebur” value ([3]; 125 g ai/ha) was 15 and the “Plant response rating, Cocklebur” value [3] was 20. For the same molecule, the “Plant response rating (0 to 100), Canarygrass” value ([4]; 31 g ai/ha) was 0, the “Plant response rating (0 to 100), Canarygrass” value ([4]; 62 g ai/ha) was 0 and the “Plant response rating (0 to 100), Canarygrass” value ([4]; 125 g ai/ha) was 0. The “Plant response rating, Canarygrass” value [4] was 0, the “Plant response rating (0 to 100), Deadnettle” value ([5]; 31 g ai/ha) was 0 and the “Plant response rating (0 to 100), Deadnettle” value ([5]; 62 g ai/ha) was 0. For the same molecule, the “Plant response rating (0 to 100), Deadnettle” value ([5]; 125 g ai/ha) was 0 and the “Plant response rating, Deadnettle” value [5] was 0.
